Data on five compounds can be found in patent US20130310374A1, “Substituted Imidazoquinoline Derivatives” (PIRAMAL ENTERPRISES LIMITED`, priority 2010, published 2013).

What is called IC50 is the concentration that gives 50% inhibition.

Structures are written as SMILES.

The test system of data set [1] is AsPC 1. The experiment in a line: Cytotoxicity propidium iodide assay, AsPC 1. In kind it is cell-based. Particulars: Homo sapiens, ASPC1; AsPC 1 (pancreatic), 48 hours treatment; read-out: IC50 Values in μM, C4b.
Data set [2] concerns hPBMC. The experiment in a line: MTS toxicity assay in parallel to Con-A-induced IFN-γ assay. In kind it is cell-based, human. Conditions: Con-A experiment. As to the method: Peripheral blood was collected from normal healthy volunteers after informed consent. Peripheral blood mononuclear cells (hPBMC) were harvested using Ficoll-Hypaque density gradient centrifugation (1.077 g/mL; Sigma Aldrich). hPBMCs were resuspended in RPMI 1640 culture medium (Gibco BRL, Pasley, UK) containing 10% FCS, 100 U/mL penicillin (Sigma Chemical Co. St Louis, Mo.) and […] streptomycin (Sigma Chemical Co. St Louis, Mo.) at 1×10^6 cells/mL. 1×10^5 hPBMCs/well were pre-treated with 0.025 μM of compounds of present invention or 0.5% DMSO (vehicle control) for 30 minutes at 37° C. Subsequently, these cells were stimulated with 1 μg/mL concanavalin A (Sigma Chemical Co., St. Louis, Mo.). Following 18 hours of incubation at 37° C., supernatants were collected and stored at −70° C. until assayed for human IFN-γ by ELISA as described by the manufacturer (OptiEIA ELISA sets, BD BioSciences). In every experiment, cyclosporin (1 μM) was used as a positive control for inhibiting induced IFN-γ production. In all experiments, the toxicity of test compounds was ascertained, in parallel, using the MTS (3-(4,5-dimethylthiazol-2-yl)-5-(3-carboxymethoxyphenyl)-2-(4-sulfonyl)-2H-tetrazolium) assay as described in Am. J. Physiol. Cell Physiol., 2003, 285, C813-C822.
In general terms: Tetrazolium dyes change colour on reduction, which living cells bring about.

Data set [3] relates to PANC 1. In words: Cytotoxicity propidium iodide assay, PANC 1. In kind it is cell-based. Conditions: Homo sapiens; PANC 1 (pancreatic), 48 hours treatment; read-out: IC50 Values in μM, C4a. As to the method: (§1) The assay was designed as in the reference, Anticancer Drugs, 2002, 13, 1-8, the disclosure of which is incorporated herein by reference for the teaching of the assay.
(§2) Cells from cell lines (ATCC) as mentioned in the table given below were seeded at a density of 3000 cells/well in a white opaque 96-well plate. Following incubation at 37° C./5% CO2 for a period of 18-24 hours, the cells were treated with various concentrations (stock solution was prepared in DMSO and subsequent dilutions were made in media as per ATCC guidelines) of the compounds of the present invention for a period of 48 hours. At the end of treatment, the culture medium was discarded, the cells were washed with 1×PBS and 200 μL of […] propidium iodide was added to each well. The plates were frozen at […] overnight. For analysis, the plates were warmed to RT, allowed to thaw and were read in PoleStar fluorimeter with the fluorescence setting. The percentage of viable cells in the non-treated set of wells was considered to be 100 and the percentage viability following treatment was calculated accordingly. IC50 values were calculated from graphs plotted using these percentages. IC50 values for certain compounds of present invention are depicted in Table 1 and % Inhibition of certain compounds of present invention are depicted in Table 2.

Data set [4] deals with BT 549. The experiment in a line: Cytotoxicity propidium iodide assay, BT 549. Format: cell-based. Particulars: Homo sapiens; BT 549 (breast), 48 hours treatment; read-out: IC50 Values in μM, C3c. The gist of the method: (§3)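 Following a 48 h treatment with various compound concentrations, cells plated at 3000 per well were stained with […] propidium iodide and frozen overnight. Fluorescence after thawing gave percent viability against untreated controls, from which IC50 values were calculated.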

For data set [5], the system named is LN18. The experiment in a line: Cytotoxicity propidium iodide assay, LN18. Particulars: Homo sapiens, LN-18; LN18 (glioblastoma), 48 hours treatment; read-out: IC50 Values in μM, C5b. In kind it is cell-based. As to the method:
as §1, §2

Data set [6] relates to PI3K/mTOR pathway. The experiment in a line: Western blot analysis in A2780 ovarian cancer cell line. In kind it is cell-based. Particulars: A2780 cells treated for 1 hour; FIG. 1A-1E. As to the method: Protocol for Western Blot Analysis
A2780 ovarian cancer cell line (ATCC) were grown to approximately 70% confluence in 100-mm tissue culture dishes and then treated for 1 hour with […] compounds of Example 2, 3, 5, 16, 19, 55 and 59. Total protein was extracted using cell lysis buffer (NaCl […], NP40 0.67%, Tris-Cl, pH 7.5, 67 mM) containing protease inhibitors and phosphatase inhibitors (Beta-glycerol phosphate 40 mM, DTT 1 mM, NaF 0.4 mM, Sodium-Orthovanadate 0.4 mM) at 4° C. for 1 hour. Cell lysates were then centrifuged at 2×10^4 g for 10 minutes at 4° C., and the protein concentration of the supernatant was quantified using the Bradford's method (BioRad, USA). For SDS-PAGE, 50 μg protein was loaded in SDS-PAGE, transferred to a polyvinylidene difluoride membrane (Bio-Rad, USA) and blocked with 5 mL buffer [5% skim milk and 0.1% Tween] for 1 hour 30 minutes. Membrane were probed with primary antibody (all primary antibodies were from cell signaling with 1:1000 in TBST solution) of respective protein at 4° C. overnight. Peroxidase-labeled anti-rabbit or anti-mouse antibodies (Santacruze, USA) were used as the secondary antibody. Actin and respective whole protein levels were used as the control for protein loading. Protein antigens were detected using Chemiluminescent Substrate (Thermo scientific, USA) and exposed on Kodak station.
(In western blotting, separated proteins are transferred to a membrane and probed.)

The test system of data set [7] is T315I. In words: Cytotoxicity propidium iodide assay, T315I. Particulars: T315I (CML), 48 hours treatment; read-out: IC50 Values in μM, C6b. Format: cell-based. As to the method: as §1, §2
Data set [8] deals with KCL22/SR. The experiment in a line: Cytotoxicity propidium iodide assay, KCL22/SR. In kind it is cell-based. Particulars: Homo sapiens, KCL-22; KCL22/SR (CML), 48 hours treatment; read-out: IC50 Values in μM, C6e. The gist of the method: as §3

On to `Cn1c(=O)n(-c2ccc(C(C)(C)C#N)nc2)c2c3cc(-c4cnc5ccccc5c4)ccc3ncc21` [Example 2, 2-Methyl-2-(5-(3-methyl-2-oxo-8-(quinolin-3-yl)-2,3-dihydro-1H-imidazo[4,5-c]quinolin-1-yl)pyridin-2-yl)propanenitrile], for which the IC50 in data set [1] was determined as 0.09 µM; in data set [3], 0.1 µM; in data set [4], 0.9 µM; in data set [5], 0.33 µM. For the same compound, the “% Toxicity at 0.025 μM” value in data set [2] came out at 12%. Besides, the “Akt, S6 and 4EBP1 phosphorylation (Western blot)” value (“Akt, S6 and 4EBP1 phosphorylation” below) in data set [6] is “inhibit Akt, S6 and 4EBP1 phosphorylation”.

As for `Cn1c(=O)n(-c2ccc(C(C)(C)C#N)nc2)c2c3cc(-c4cnc(N)c(C(F)(F)F)c4)ccc3ncc21` [Example 3, 2-(5-(8-(6-Amino-5-(trifluoromethyl)pyridin-3-yl)-3-methyl-2-oxo-2,3-dihydro-1H-imidazo[4,5-c]quinolin-1-yl)pyridin-2-yl)-2-methylpropanenitrile], the IC50 turned out to be 0.019 µM in data set [1]; 0.01 µM in data set [3]; 0.03 µM in data set [4]; 0.144 µM in data set [5]; 0.32 µM in data set [7]; 0.06 µM in data set [8]. Moreover, the “% Toxicity at 0.025 μM” value in data set [2] is listed as 21%. Further, the “Akt, S6 and 4EBP1 phosphorylation” value in data set [6] was “inhibit Akt, S6 and 4EBP1 phosphorylation”.

With `CS(=O)(=O)O.Cn1c(=O)n(-c2ccc(C(C)(C)C#N)nc2)c2c3cc(-c4cnc(N)c(C(F)(F)F)c4)ccc3ncc21` [Example 3a, 8-(6-Amino-5-(trifluoromethyl)pyridin-3-yl)-1-(6-(2-cyanopropan-2-yl)pyridin-3-yl)-3-methyl-2-oxo-2,3-dihydro-1H-imidazo[4,5-c]quinolin-5-ium methanesulfonate], the “Akt, S6 and 4EBP1 phosphorylation” value in data set [6] was “inhibit Akt, S6 and 4EBP1 phosphorylation”.

For `CC(C)(C#N)c1ccc(-n2c(=O)n(CC#N)c3cnc4ccc(-c5cnc(N)c(C(F)(F)F)c5)cc4c32)cn1` [Example 16, 2-(5-(8-(6-Amino-5-(trifluoromethyl)pyridin-3-yl)-3-(cyanomethyl)-2-oxo-2,3-dihydro-1H-imidazo[4,5-c]quinolin-1-yl)pyridin-2-yl)-2-methylpropanenitrile], the IC50 in data set [1] amounted to 0.038 µM; in data set [3] it was 0.017 µM; in data set [4] it was 0.015 µM; in data set [5] it was 0.44 µM; in data set [7], 2.13 µM; in data set [8], 0.23 µM. Moreover, the “% Toxicity at 0.025 μM” value in data set [2] is listed as 3%. In addition, the “Akt, S6 and 4EBP1 phosphorylation” value in data set [6] was “inhibit Akt, S6 and 4EBP1 phosphorylation”.

As to `COc1ccc(-n2c(=O)n(C)c3cnc4ccc(-c5cnc(N)c(C(F)(F)F)c5)cc4c32)cn1` [Example 19, 8-(6-Amino-5-(trifluoromethyl)pyridin-3-yl)-1-(6-methoxypyridin-3-yl)-3-methyl-1H-imidazo[4,5-c]quinolin-2(3H)-one], the IC50 in data set [1] was determined as 0.1 µM; in data set [3], 0.026 µM; in data set [4], 0.23 µM; in data set [5] it was 0.096 µM; in data set [7], 0.049 µM; in data set [8], 0.06 µM. For the same compound, in data set [2], the “% Toxicity at 0.025 μM” value is 18%. The “Akt, S6 and 4EBP1 phosphorylation” value in data set [6] was “inhibit Akt, S6 and 4EBP1 phosphorylation”.
